Results taken from ChEMBL document CHEMBL1145415, “Synthesis and antibacterial activity of novel fluoroquinolones containing substituted piperidines” (2007).
Converted amounts (≈) assume the structure as drawn.

Experiments:
Format in all cases: functional
Streptococcus pneumoniae = assay: Antibacterial activity against Streptococcus pneumoniae 05-9 after 18 to 24 hrs
Staphylococcus aureus [1] = assay: Antibacterial activity against methicillin-resistant Staphylococcus aureus 05-3 after 18 to 24 hrs
Pseudomonas aeruginosa = assay: Antibacterial activity against Pseudomonas aeruginosa […] after 18 to 24 hrs
Klebsiella pneumoniae = assay: Antibacterial activity against Klebsiella pneumoniae 05-4 after 18 to 24 hrs
Staphylococcus aureus [2] = assay: Antibacterial activity against methicillin-sensitive Staphylococcus aureus 04-4 after 18 to 24 hrs
Escherichia coli = assay: Antibacterial activity against Escherichia coli ATCC 25922 after 18 to 24 hrs
Enterococcus faecalis = assay: Antibacterial activity against Enterococcus faecalis 03-4 after 18 to 24 hrs

SMILES | MIC (Streptococcus pneumoniae) [µg/mL] | MIC (Staphylococcus aureus [1]) [µg/mL] | MIC (Pseudomonas aeruginosa) [µg/mL] | MIC (Klebsiella pneumoniae) [µg/mL] | MIC (Staphylococcus aureus [2]) [µg/mL] | MIC (Escherichia coli) [µg/mL] | MIC (Enterococcus faecalis) [µg/mL]
CCCO/N=C1\CCN(c2nc3c(cc2F)c(=O)c(C(=O)O)cn3C2CC2)CC1N(C)C (stereo not given) | 0.125 (≈ 0.281 µM) | 2 (≈ 4.49 µM) | 2 (≈ 4.49 µM) | 16 (≈ 35.9 µM) | 0.5 (≈ 1.12 µM) | 16 (≈ 35.9 µM) | 0.25 (≈ 0.561 µM)
CNC1CN(c2nc3c(cc2F)c(=O)c(C(=O)O)cn3C2CC2)CC/C1=N\OC (stereo not given) | < 0.001 | 4 (≈ 9.92 µM) | 1 (≈ 2.48 µM) | 2 (≈ 4.96 µM) | < 0.001 | 4 (≈ 9.92 µM) | < 0.001
CNC1CCN(c2nc3c(cc2F)c(=O)c(C(=O)O)cn3C2CC2)C/C1=N\OCc1ccccc1 (stereo not given) | < 0.001 | 2 (≈ 4.17 µM) | 0.5 (≈ 1.04 µM) | 4 (≈ 8.34 µM) | < 0.001 | 8 (≈ 16.7 µM) | < 0.001
CO/N=C1\CCN(c2nc3c(cc2F)c(=O)c(C(=O)O)cn3C2CC2)CC1N (stereo not given) | 4 (≈ 10.3 µM) | 16 (≈ 41.1 µM) | 4 (≈ 10.3 µM) | 2 (≈ 5.14 µM) | 4 (≈ 10.3 µM) | 8 (≈ 20.5 µM) | 8 (≈ 20.5 µM)
CN(C)C1CN(c2nc3c(cc2F)c(=O)c(C(=O)O)cn3C2CC2)CC/C1=N\OCc1ccccc1 (stereo not given) | 0.015 (≈ 0.0304 µM) | 4 (≈ 8.1 µM) | 2 (≈ 4.05 µM) | 16 (≈ 32.4 µM) | 0.015 (≈ 0.0304 µM) | 16 (≈ 32.4 µM) | 0.06 (≈ 0.122 µM)
CCO/N=C1\CN(c2nc3c(cc2F)c(=O)c(C(=O)O)cn3C2CC2)CCC1NC (stereo not given) | < 0.001 | 2 (≈ 4.79 µM) | 0.06 (≈ 0.144 µM) | 1 (≈ 2.4 µM) | < 0.001 | 4 (≈ 9.58 µM) | < 0.001
CCCO/N=C1\CN(c2nc3c(cc2F)c(=O)c(C(=O)O)cn3C2CC2)CCC1NC (stereo not given) | 0.03 (≈ 0.0695 µM) | 2 (≈ 4.64 µM) | 0.06 (≈ 0.139 µM) | 4 (≈ 9.27 µM) | 0.06 (≈ 0.139 µM) | 4 (≈ 9.27 µM) | 0.06 (≈ 0.139 µM)
CO/N=C1\CN(c2nc3c(cc2F)c(=O)c(C(=O)O)cn3C2CC2)CC1CN (stereo not given) [GEMIFLOXACIN] | 0.004 (≈ 0.0103 µM) | 0.004 (≈ 0.0103 µM) | 0.125 (≈ 0.321 µM) | 0.125 (≈ 0.321 µM) | 0.004 (≈ 0.0103 µM) | 0.125 (≈ 0.321 µM) | 0.004 (≈ 0.0103 µM)
CC(=O)NC[C@H]1CN(c2ccc(N3CCOCC3)c(F)c2)C(=O)O1 [LINEZOLID] | – | 1 (≈ 2.96 µM) | – | – | 0.5 (≈ 1.48 µM) | – | 0.125 (≈ 0.371 µM)
CN[C@H](CC(C)C)C(=O)N[C@H]1C(=O)N[C@@H](CC(N)=O)C(=O)N[C@H]2C(=O)N[C@H]3C(=O)N[C@H](C(=O)N[C@H](C(=O)O)c4cc(O)cc(O)c4-c4cc3ccc4O)[C@H](O)c3ccc(c(Cl)c3)Oc3cc2cc(c3O[C@@H]2O[C@H](CO)[C@@H](O)[C@H](O)[C@H]2O[C@H]2C[C@](C)(N)[C@H](O)[C@H](C)O2)Oc2ccc(cc2Cl)[C@H]1O [VANCOMYCIN] | 0.004 (≈ 0.00276 µM) | – | – | – | – | – | –
